Test results reported in US8461289B2, “Bioresorbable polymers synthesized from monomer analogs of natural metabolites” (Rutgers, The State University of New Jersey, priority 2006, dated 2013).
≈ marks a conversion by molar mass, not a printed value. Where two headings read alike, the source gives them in different places.

Test: Determination of solubility of monomers in PBS (HPLC of filtrate against calibration curve)
Assay type: physicochemical
Details: monomer in PBS (pH 7.4), filtered; for solubility at 2 h: aqueous buffer, thermodynamic from solid
Procedure: About 30 mg of the monomer and 2 mL of PBS (pH 7.4) were added to a 2 dram vial. The vial was agitated on a vortex mixer for 2 h. If all the solid dissolved, more solid was added and agitation was continued. The mixture was filtered using a syringe filter to remove undissolved monomer. The clear filtrate was analyzed by HPLC by injecting 5 microliter of the filtrate. The area of the peak obtained was measured. A calibration curve was obtained by injecting known concentration of the monomer in methanol and plotting concentration against the area of the peaks obtained. Using this calibration curve the solubility of the monomer in PBS at ambient temperature was determined.
To determine the solubility at 37° C., the vials were placed in an incubator at 37° C. for 2 h. The mixture was then quickly filtered using syringe filter and then diluted 2× with PBS to prevent precipitation of the monomer. The solubility is determined using procedures similar to that used at room temperature solubility.

[1] = ambient temperature / 25° C., agitated 2 h

Solubility, mg/mL, 37° C. (incubator at 37° C. for 2 h, diluted 2× with PBS) | solubility at 2 h (ambient temperature / 25° C., agitated 2 h, read-out: Solubility, mg/mL, 25° C.) | solubility at 2 h (incubator at 37° C. for 2 h, diluted 2× with PBS, read-out: Solubility, mg/mL, 37° C.) | SMILES | Solubility, mg/mL, 25° C. [1]
0.43 mg/mL (≈ 1.08 mM) | – | – | CCOC(=O)C(Cc1c[nH]c2ccc(O)cc12)NC(=O)CCc1ccc(O)cc1 (stereo not shown) [DAT-5-hydroxytryptophan ethyl ester, DAT-5-Hydroxytryptophan Ethyl Ester] | 0.15 mg/mL (≈ 0.378 mM)
– | – | – | CCOC(=O)C(Cc1ccc(Oc2ccc(O)cc2)cc1)NC(=O)CCc1ccc(O)cc1 (stereo not shown) [DAT-Thyronine ethyl ester] | <0.05 mg/mL
– | 7.7 mg/mL (≈ 27.4 mM) | 14.1 mg/mL (≈ 50.2 mM) | CCOC(=O)[C@H](CO)NC(=O)CCc1ccc(O)cc1 [DAT-serine ethyl ester, Desaminotyrosyl Serine Ethyl Ester] | –
– | – | – | CCOC(=O)C1CC(O)CN1C(=O)CCc1ccc(O)cc1 (stereo not drawn) [DAT-trans-Hydroxyproline ethyl ester, DAT-Hydroxyproline Ethyl Ester] | 12 mg/mL (≈ 39 mM)
– | – | – | CCOC(=O)[C@H](Cc1ccc(O)cc1)NC(=O)CCc1ccc(O)cc1 [DAT-tyrosine ethyl ester (DTE), DAT-tyrosine ethyl ester, reference compound] | 0.74 mg/mL (≈ 2.07 mM)
